The values that follow come from patent publication US20240165092A1, “USE OF AN OREXIN 2 RECEPTOR AGONIST FOR POST OPERATION RECOVERY” (Takeda Pharmaceutical Limited Company, priority 2021, published 2024).

What all share (format): in vivo, rat
In assay [1] the test system is Male Sprague-Dawley rats. The assay can be described thus: Time to recovery from isoflurane-induced anesthesia assessed by righting reflex. To be noted: for Duration of anesthesia (min) (Mean): isoflurane anesthesia 30 min, vehicle 6.15. On the procedure:
Male Sprague-Dawley rats, 8 weeks-age, were purchased from Charles river Japan. To induce and maintain isoflurane anesthesia, rats were placed in a pre-filled anesthesia induction chamber isoflurane 4%. The induction of anesthesia was defined as the rat's inability to right itself into the prone position (loss of righting reflex: LORR) after it was placed in the supine position in a cage. After confirming LORR, rats were exposed to 3% isoflurane using a facemask and maintained for 30 min. Fifteen minutes after LORR, Compound (I) was administered subcutaneously (SC) to rats in a volume of 5 mL/kg of body weight (BW). As vehicle-treated control, 10.5% (w/v) Captisol® (CyDex Pharmaceuticals, KS, USA)/1.5 mM Na2HIPO4 in distilled water was administered to rats. Thirty minutes after confirming LORR, isoflurane inhalation was terminated and time to recovery from LORR was recorded as duration of anesthesia. Body temperature was maintained at 37.0-37.5° C. using a heating pad during and after anesthesia.

For assay [2], the system named is Male Sprague-Dawley rats. Briefly: Time to recovery from propofol-induced anesthesia assessed by righting reflex. Conditions: for Duration of anesthesia (min) (Mean): propofol anesthesia 30 min, vehicle 12.8. Here is the method: Male Sprague-Dawley rats, 8 weeks-age, were purchased from Charles river Japan. To induce and maintain propofol anesthesia, a bolus dose of propofol (10 mg/kg) was administered intravenously to rats. After confirming LORR, rats were gently placed in the supine position on a heating pad to maintain body temperature at 37.0-37.5° C. Subsequently, continuous administration of propofol at 60 mg/kg/hr was performed for 30 min. Fifteen minutes after LORR, Compound (I) was administered SC to rats in a volume of 5 mL/kg of BW. As vehicle-treated control, 10.5% (w/v) Captisol®/1.5 mM Na2HPO4 in distilled water was administered to rats. Thirty minutes after confirming LORR, propofol infusion was terminated and time to recovery from LORR was recorded as duration of anesthesia.

For assay [3], the system named is Male Sprague-Dawley rats. The assay can be described thus: Fentanyl (0.1 mg/kg)-induced sedation assessed by righting reflex. To be noted: for Duration of sedation (min) (Mean): fentanyl 0.1 mg/kg SC, vehicle 88.8. Here is the method: Male Sprague-Dawley rats, 8 weeks-age, were purchased from Charles river Japan. In this study, LORR was used as an indicator of sedation. […] As vehicle-treated control, 10.5% (w/v) Captisol®/1.5 mM Na2HIPO4 in distilled water was administered. The time to recovery from LORR was recorded as duration of sedation.

Assay [4] has as its system Male Sprague-Dawley rats. The assay can be described thus: Fentanyl (0.1 mg/kg)-induced respiratory depression assessed by whole body plethysmography (WBP).
The subject of assay [5] is Male Sprague-Dawley rats. The assay can be described thus: Fentanyl-induced analgesic effects in formalin test. To be noted: for Phase I (No. of flinching) / Phase II (No. of flinching): formalin test; for Phase I (No. of flinching): 1 to 11 min; for Phase II (No. of flinching): 16 to 61 min.
Assay [6] has as its system Male Sprague-Dawley rats. Briefly: Fentanyl-induced analgesic effects in pain model of postoperative skin incision.
[7] abbreviates: Compound (I) 1.0 mg/kg SC 15 min after LORR.
Setting [8] is: Compound (I) 10 mg/kg SC 15 min before fentanyl 0.1 mg/kg SC, 0 to 30 min after fentanyl.
[9] abbreviates: Compound (I) 3.0 mg/kg + fentanyl 0.045 mg/kg.
The mark [10] stands for this setting: Compound (I) 10 mg/kg + fentanyl 0.045 mg/kg.

Regarding `COC(=O)N1CCCC(NS(C)(=O)=O)C1COC1CCC(c2ccccc2)CC1` (stereo not drawn) [Compound (I), methyl 3-((methylsulfonyl)amino)-2-(((4-phenylcyclohexyl)oxy)methyl)piperidine-1-carboxylate], the “Duration of anesthesia (min) (Mean)” value in assay [1] (Compound (I) 0.3 mg/kg SC 15 min after LORR) worked out at 3.92 min; in assay [1] (setting [7]) it was 3.06 min; in assay [2] (setting [7]), 11.7 min; in assay [2] (Compound (I) 3.0 mg/kg SC 15 min after LORR), 6.70 min; in assay [2] (Compound (I) 10 mg/kg SC 15 min after LORR) it was 6.00 min. Moreover, the “time to recovery from isoflurane-induced anesthesia assessed by righting reflex” value in assay [1] (result in words) is listed as “reduced time to recovery”. In addition, the “time to recovery from propofol-induced anesthesia assessed by righting reflex” value in assay [2] (result in words) was “reduced time to recovery”. Further, the “Duration of sedation (min) (Mean)” value in assay [3] (Compound (I) 1.0 mg/kg SC 10 min after fentanyl) stood at 81.3 min; in assay [3] (Compound (I) 3.0 mg/kg SC 10 min after fentanyl) it was 67.0 min; in assay [3] (Compound (I) 10 mg/kg SC 10 min after fentanyl), 42.9 min. The “duration of fentanyl-induced sedation assessed by righting reflex” value in assay [3] (result in words) is listed as “reduced duration of fentanyl-induced sedation”. Further, the “MV (mL/min) (Mean)” value in assay [4] (setting [8]) is on record as 206 mL/min. In assay [4] (setting [8]), the “RR (breaths/min) (Mean)” value is 144 breaths/min. Further, the “TV (mL/stroke) (Mean)” value in assay [4] (setting [8]) came to 1.61 mL/stroke. For the same molecule, the fentanyl-induced respiratory depression entry in assay [4] (result in words) was “suppressed fentanyl-induced respiratory depression”. In assay [4] (with fentanyl 0.1 mg/kg, result in words), the “RR, TV and MV compared to that of vehicle group” value is “increased RR, TV and MV”. Further, the “effect on the analgesic effect of fentanyl” value is “did not counteract the analgesic effect of fentanyl” in assay [5] (formalin pain model, fentanyl 0.045 mg/kg, result in words) and “did not counteract the analgesic effect of fentanyl” in assay [6] (postoperative skin incision model, fentanyl 0.03 mg/kg, result in words). The results for the “Phase I (No. of flinching)” value in assay [5] (setting [9]) and in assay [5] (setting [10]) were 5 and 4, respectively. Moreover, the entries for the “Phase II (No. of flinching)” value in assay [5] (setting [9]) and in assay [5] (setting [10]) were 52 and 45, respectively. The “pain threshold 1 hr after the skin incision” value in assay [6] (Compound (I) 3.0 mg/kg SC 15 min before incision + fentanyl 0.03 mg/kg SC) was found to be 28.5 g; in assay [6] (Compound (I) 10 mg/kg SC 15 min before incision + fentanyl 0.03 mg/kg SC), 32.2 g.
